Experimental findings from patent US20230303486A1, “CYCLOBUTYL-UREA DERIVATIVES” (Idorsia Pharmaceuticals Ltd, priority 2020, published 2023) are described below.

Where two headings read alike, the source gives them in different places.

The test system of assay [1] is primary neuronal cultures from embryonic rat brains. Kind of assay: Rat oscillation assay (FLIPR, neuronal calcium oscillations). The assay is classed as cell-based. In outline:
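E18 Wistar rat cortical neurons cultured 8–10 days, loaded with 1 µM Fluo-8 AM, then kept in Mg2+-free HEPES-buffered HBSS (2 mM CaCl2, pH 7.4) to drive synchronized calcium oscillations. Fluorescence read at 1 Hz over 500 sec with or without XE-991, compound added at 250 sec; second acquisition 20 min after addition.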

In assay [2] the test system is audiogenic generalized convulsive seizures in DBA/2J mice. Kind of assay: Audiogenic seizure-sensitive mouse model of generalized convulsive seizures. The assay is classed as in vivo. The settings on record: 10 mg/kg po, challenge 1h. How it is done: Compounds were formulated in a 10% polyethylene glycol 400 (PEG 400) / 90% aqueous solution of 0.5 % methylcellulose (MC 0.5%). Firstly drugs are dissolved in PEG 400 and then suspended in MC 0.5 % for oral gavage at Xmg/5 mL/kg (X see table).
• 1. Procedure: Following two days of acclimatisation, auditory seizures are induced in male juvenile DBA/2J mice (22-24 days old; Janvier Labs, France). Each mouse is placed individually in the exposure chamber, an hemispheric acrylic glass dome (diameter: 50 cm) within a sound-attenuated box. The soundattenuated box is equipped with two house lights and a camera system (Fire-I from Unibrain) in order to observe and record the behavioral seizure response. After 60 seconds of habituation, the stimulus, a mixed frequency tone of 15-20 kHz at 110 dB (SASLab Lite, Avisoft Bioacoustics), is played from a speaker that is placed on the top center of the dome. […] Seizures are classified as following: stage 0, normal behavior; stage 1, wild running; stage 2, generalized clonus; stage 3, tonic extension of the hind limbs. • 2. Compounds testing: Acute compound effects on audiogenic generalized convulsive seizures are evaluated in independent groups of 8-10 mice randomly assigned. Following oral administration of compound or vehicle, the maximum seizure stage during sound exposure is assessed. Compounds are given 1 hour before exposure to the stimulus. Each mouse is exposed to the auditory stimulus only once and euthanized afterwards by CO2 inhalation.

Consider `O=C(NCc1cccc(C(F)(F)F)c1)NC1CC(C(F)F)C1` (single isomer, unassigned) [Example 53, 1-(3-(Difluoromethyl)Cyclobutyl)-3-(3-(Trifluoromethyl)Benzyl)Urea], for which the IC50 in assay [1] (20 min after compound addition, AUC of fluorescence, read-out: FLIPR: IC50 [nM] 20 min) is 295 nM; in assay [1] (acute phase, ratio of AUC fluorescence before and after compound addition, rat cortical neurons, Mg-free buffer, read-out: FLIPR: IC50 [nM] acute), 168 nM. In addition, the “Seizure stage [% vs. vehicle]” value in assay [2] is listed as -78 % vs. vehicle.

For the compound `O=C(NCc1cccc(C(F)(F)F)c1)NC12CC(C(F)F)(C1)C2` [Example 47, 1-(3-Difluoromethyl-Bicyclo[1.1.1]Pent-1-yl)-3-(3-Trifluoromethyl-Benzyl)-Urea], the IC50 in assay [1] (Rattus norvegicus, 20 min, 20 min after compound addition, AUC of fluorescence, read-out: FLIPR: IC50 [nM] 20 min) was determined as 160 nM; in assay [1] (Rattus norvegicus, Cortical neurone, acute phase, ratio of AUC fluorescence before and after compound addition, rat cortical neurons, Mg-free buffer, read-out: FLIPR: IC50 [nM] acute), 118 nM. Also, the “Seizure stage [% vs. vehicle]” value in assay [2] is given as -92 % vs. vehicle.
